Reference: PubChem BioAssay (NCI)
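These data come from cells grown in 96-well plates and exposed to compound for 48 hours at five concentrations. The concentration for full growth arrest is given as TGI.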

Experiments:
Assay in all cases: inhibition of tumour cell growth, NCI panel, 48 h
RPMI-8226 leukemia = tested on: RPMI-8226 leukemia
TK-10 renal = tested on: TK-10 renal
LXFL 529 NSCLC = tested on: LXFL 529 NSCLC
UACC-257 melanoma = tested on: UACC-257 melanoma
OVCAR-8 ovarian = tested on: OVCAR-8 ovarian
HOP-92 NSCLC = tested on: HOP-92 NSCLC
A549 NSCLC = tested on: A549 NSCLC
M19-MEL melanoma = tested on: M19-MEL melanoma
MOLT-4 leukemia = tested on: MOLT-4 leukemia
KM20L2 colon = tested on: KM20L2 colon
NCI-H23 lung = tested on: NCI-H23 lung
SK-MEL-5 melanoma = tested on: SK-MEL-5 melanoma
OVCAR-3 ovarian = tested on: OVCAR-3 ovarian
DMS 273 small cell lung = tested on: DMS 273 small cell lung
HT29 colon = tested on: HT29 colon
MALME-3M melanoma = tested on: MALME-3M melanoma
DMS 114 small cell lung = tested on: DMS 114 small cell lung
HCT-15 colon = tested on: HCT-15 colon
SF-295 CNS = tested on: SF-295 CNS
SNB-19 CNS = tested on: SNB-19 CNS
OVCAR-4 ovarian = tested on: OVCAR-4 ovarian
COLO 205 colon = tested on: COLO 205 colon
SN12C renal = tested on: SN12C renal
A498 renal = tested on: A498 renal
SK-MEL-2 melanoma = tested on: SK-MEL-2 melanoma
HOP-62 NSCLC = tested on: HOP-62 NSCLC
KM12 colon = tested on: KM12 colon
SK-MEL-28 melanoma = tested on: SK-MEL-28 melanoma
NCI-H460 lung = tested on: NCI-H460 lung
M14 melanoma = tested on: M14 melanoma
U251 CNS = tested on: U251 CNS
HL-60(TB) leukemia = tested on: HL-60(TB) leukemia
EKVX NSCLC = tested on: EKVX NSCLC
SW-620 colon = tested on: SW-620 colon
UO-31 renal = tested on: UO-31 renal
DLD-1 colon = tested on: DLD-1 colon
SK-OV-3 ovarian = tested on: SK-OV-3 ovarian
K-562 leukemia = tested on: K-562 leukemia
CAKI-1 renal = tested on: CAKI-1 renal
NCI-H226 lung = tested on: NCI-H226 lung
IGROV1 ovarian = tested on: IGROV1 ovarian
HCT-116 colon = tested on: HCT-116 colon
SF-268 CNS = tested on: SF-268 CNS
SNB-75 CNS = tested on: SNB-75 CNS
SF-539 CNS = tested on: SF-539 CNS
UACC-62 melanoma = tested on: UACC-62 melanoma
OVCAR-5 ovarian = tested on: OVCAR-5 ovarian
786-0 renal = tested on: 786-0 renal
CCRF-CEM leukemia = tested on: CCRF-CEM leukemia
NCI-H522 lung = tested on: NCI-H522 lung
ACHN renal = tested on: ACHN renal
MDA-MB-435 = tested on: MDA-MB-435
HCC-2998 colon = tested on: HCC-2998 colon
DU-145 prostate = tested on: DU-145 prostate
LOX IMVI melanoma = tested on: LOX IMVI melanoma
MDA-N = tested on: MDA-N
MDA-MB-231 breast = tested on: MDA-MB-231 breast
T-47D breast = tested on: T-47D breast
RXF 393 renal = tested on: RXF 393 renal
BT-549 breast = tested on: BT-549 breast
PC-3 prostate = tested on: PC-3 prostate
HS 578T breast = tested on: HS 578T breast
SR leukemia = tested on: SR leukemia
NCI/ADR-RES ovarian = tested on: NCI/ADR-RES ovarian
MCF7 breast = tested on: MCF7 breast

**Q.** How did the TGI (RPMI-8226 leukemia) turn out when O=C1C2=C(c3ccccc31)C(c1ccc(Cl)cc1)NC(=S)N2 (stereo not given) was run?
**A.** Its TGI is 52.8 µM.

**Q.** And the TGI (TK-10 renal)?
**A.** Its TGI is 48.9 µM.

**Q.** What about the TGI (LXFL 529 NSCLC) of the same compound?
**A.** Its TGI is 29.5 µM.

**Q.** What about the TGI (UACC-257 melanoma) of the same compound?
**A.** The TGI was greater than 100 µM.

**Q.** What about the TGI (OVCAR-8 ovarian) of the same compound?
**A.** The TGI was 38.4 µM.

**Q.** And the TGI (HOP-92 NSCLC)?
**A.** Its TGI is 41.2 µM.

**Q.** And the TGI (A549 NSCLC)?
**A.** Its TGI is 39 µM.

**Q.** What about the TGI (M19-MEL melanoma) of the same compound?
**A.** Its TGI is 37.2 µM.

**Q.** And the TGI (MOLT-4 leukemia)?
**A.** Its TGI is 41.3 µM.

**Q.** What about the TGI (KM20L2 colon) of the same compound?
**A.** The TGI was 37.4 µM.

**Q.** And the TGI (NCI-H23 lung)?
**A.** The TGI was 40.5 µM.

**Q.** And the TGI (SK-MEL-5 melanoma)?
**A.** Its TGI is greater than 100 µM.

**Q.** What about the TGI (OVCAR-3 ovarian) of the same compound?
**A.** Its TGI is 39.6 µM.

**Q.** What about the TGI (DMS 273 small cell lung) of the same compound?
**A.** Its TGI is 42.8 µM.

**Q.** And the TGI (HT29 colon)?
**A.** The TGI was 90.7 µM.

**Q.** What about the TGI (MALME-3M melanoma) of the same compound?
**A.** The TGI was 79.4 µM.

**Q.** What about the TGI (DMS 114 small cell lung) of the same compound?
**A.** Its TGI is 67.5 µM.

**Q.** And the TGI (HCT-15 colon)?
**A.** Its TGI is 35.9 µM.

**Q.** And the TGI (SF-295 CNS)?
**A.** Its TGI is 29.9 µM.

**Q.** What about the TGI (SNB-19 CNS) of the same compound?
**A.** The TGI was 96 µM.

**Q.** What about the TGI (OVCAR-4 ovarian) of the same compound?
**A.** The TGI was 37.8 µM.

**Q.** And the TGI (COLO 205 colon)?
**A.** Its TGI is 64.9 µM.

**Q.** What about the TGI (SN12C renal) of the same compound?
**A.** The TGI was 40.3 µM.

**Q.** And the TGI (A498 renal)?
**A.** The TGI was greater than 100 µM.

**Q.** And the TGI (SK-MEL-2 melanoma)?
**A.** The TGI was 58.7 µM.

**Q.** And the TGI (HOP-62 NSCLC)?
**A.** Its TGI is greater than 100 µM.

**Q.** What about the TGI (KM12 colon) of the same compound?
**A.** The TGI was 52.5 µM.

**Q.** What about the TGI (SK-MEL-28 melanoma) of the same compound?
**A.** The TGI was 34.1 µM.

**Q.** What about the TGI (NCI-H460 lung) of the same compound?
**A.** Its TGI is greater than 100 µM.

**Q.** And the TGI (M14 melanoma)?
**A.** The TGI was 54.6 µM.

**Q.** And the TGI (U251 CNS)?
**A.** The TGI was 33.6 µM.

**Q.** And the TGI (HL-60(TB) leukemia)?
**A.** The TGI was 37.8 µM.

**Q.** What about the TGI (EKVX NSCLC) of the same compound?
**A.** Its TGI is greater than 100 µM.

**Q.** And the TGI (SW-620 colon)?
**A.** Its TGI is 40.5 µM.

**Q.** And the TGI (UO-31 renal)?
**A.** Its TGI is 35 µM.

**Q.** And the TGI (DLD-1 colon)?
**A.** Its TGI is 60.9 µM.

**Q.** What about the TGI (SK-OV-3 ovarian) of the same compound?
**A.** Its TGI is greater than 100 µM.

**Q.** What about the TGI (K-562 leukemia) of the same compound?
**A.** The TGI was 40.2 µM.

**Q.** And the TGI (CAKI-1 renal)?
**A.** Its TGI is 78.3 µM.

**Q.** What about the TGI (NCI-H226 lung) of the same compound?
**A.** Its TGI is 67.7 µM.

**Q.** And the TGI (IGROV1 ovarian)?
**A.** The TGI was 42.6 µM.

**Q.** And the TGI (HCT-116 colon)?
**A.** The TGI was 28.3 µM.

**Q.** What about the TGI (SF-268 CNS) of the same compound?
**A.** The TGI was 40.1 µM.

**Q.** And the TGI (SNB-75 CNS)?
**A.** The TGI was 34 µM.

**Q.** And the TGI (SF-539 CNS)?
**A.** The TGI was 29.6 µM.

**Q.** And the TGI (UACC-62 melanoma)?
**A.** Its TGI is 70.9 µM.

**Q.** And the TGI (OVCAR-5 ovarian)?
**A.** The TGI was greater than 100 µM.

**Q.** And the TGI (786-0 renal)?
**A.** Its TGI is 34 µM.

**Q.** What about the TGI (CCRF-CEM leukemia) of the same compound?
**A.** The TGI was 54.6 µM.

**Q.** What about the TGI (NCI-H522 lung) of the same compound?
**A.** Its TGI is 56.2 µM.

**Q.** What about the TGI (ACHN renal) of the same compound?
**A.** The TGI was greater than 100 µM.

**Q.** What does the source list for COc1cc(N=Nc2cccc(S(N)(=O)=O)c2)c2ccccc2c1N?
**A.** TGI (MDA-MB-435): 3.71 µM; TGI (RPMI-8226 leukemia): 57.3 µM; TGI (TK-10 renal): 30.1 µM; TGI (HCC-2998 colon): 20.7 µM; TGI (DU-145 prostate): 3.43 µM; TGI (UACC-257 melanoma): 3.37 µM; TGI (OVCAR-8 ovarian): 56 µM; TGI (HOP-92 NSCLC): > 58 µM; TGI (A549 NSCLC): 33 µM; TGI (LOX IMVI melanoma): 18.1 µM; TGI (MOLT-4 leukemia): 25.2 µM; TGI (NCI-H23 lung): 6.72 µM; TGI (SK-MEL-5 melanoma): 3.3 µM; TGI (MDA-N): 5.63 µM; TGI (OVCAR-3 ovarian): 27.5 µM; TGI (HT29 colon): 31 µM; TGI (MALME-3M melanoma): 3.13 µM; TGI (MDA-MB-231 breast): 26.5 µM; TGI (T-47D breast): > 61.2 µM; TGI (HCT-15 colon): 49.5 µM; TGI (SF-295 CNS): 26.6 µM; TGI (SNB-19 CNS): 42.2 µM; TGI (OVCAR-4 ovarian): 27.8 µM; TGI (RXF 393 renal): 33.6 µM; TGI (BT-549 breast): 20.7 µM; TGI (COLO 205 colon): 26.5 µM; TGI (SN12C renal): 26.1 µM; TGI (A498 renal): 34.7 µM; TGI (SK-MEL-2 melanoma): 5.13 µM; TGI (HOP-62 NSCLC): 21.8 µM; TGI (KM12 colon): 26.4 µM; TGI (SK-MEL-28 melanoma): 19.9 µM; TGI (NCI-H460 lung): 25.7 µM; TGI (M14 melanoma): 3.43 µM; TGI (U251 CNS): 22.5 µM; TGI (HL-60(TB) leukemia): 23.6 µM; TGI (EKVX NSCLC): 27.4 µM; TGI (SW-620 colon): > 95.3 µM; TGI (PC-3 prostate): 23.9 µM; TGI (UO-31 renal): 30.6 µM; TGI (HS 578T breast): > 27.2 µM; TGI (SK-OV-3 ovarian): 30.7 µM; TGI (SR leukemia): 35.8 µM; TGI (K-562 leukemia): 37.7 µM; TGI (CAKI-1 renal): 20.8 µM; TGI (NCI/ADR-RES ovarian): > 68.5 µM; TGI (NCI-H226 lung): 39.7 µM; TGI (IGROV1 ovarian): 28.4 µM; TGI (HCT-116 colon): 29.2 µM; TGI (SF-268 CNS): 31.9 µM; TGI (SNB-75 CNS): 4.56 µM; TGI (SF-539 CNS): 9.19 µM; TGI (MCF7 breast): 20.5 µM; TGI (UACC-62 melanoma): 4.19 µM; TGI (OVCAR-5 ovarian): 33.3 µM; TGI (786-0 renal): 26.9 µM; TGI (CCRF-CEM leukemia): 38.6 µM; TGI (NCI-H522 lung): 30.6 µM; TGI (ACHN renal): 30.3 µM
